In one data set the test system is eotaxin-3. Nature of the data set: IL13/TNFα-induced eotaxin-3 peptide secretion by ASM cells. The format is cell-based, human. Conditions: 2 mM pitavastatin, 72 hrs; cytokines 18 hrs at 10 ng/mL; 10% FBS; FIG. 14A. The method, then:
Non-asthmatic primary human ASM cells were grown to confluence and were either untreated or pre-treated with 2 mM pitavastatin and GGPP (10 mM) for a total of 72 hours. Total cytokine stimulation was for 18 hours at 10 ng/mL. […] All experiments were conducted under serum-containing media conditions (10% FBS).

The next data set has as its system ASM cells. Nature of the data set: RealTime-Glo Annexin V Apoptosis and Necrosis assay. Format: cell-based, human. The method, then:
Lack of apoptosis: Some studies have shown that statins at high enough doses can reduce the viability of vascular smooth muscle cells, epithelial cells, and endothelial cells (S. Ghavami et al., Biochim Biophys Acta (2014) 1843(7):1259-71; T. P. Miettinen et al., Cell Rep (2015) 13(11):2610-20).
RealTime-Glo™ Annexin V Apoptosis and Necrosis assay was performed by growing ASM cells on 96-well white cell culture plate according to the manufacturer's instructions (Promega Inc). […] In this real-time annexin V binding assay, the luminescence signal was detected for apoptosis and necrosis was detected with a fluorescence signal by using a SpectraMax® plate reader. […] (20 μg/mL) was used as a positive control (FIG. 2).

A further data set relates to primary ASM cells. Put plainly: Potentiation of isoproterenol relaxation of histamine-induced ASM contraction. Format: cell-based, human. Conditions: FIG. 17A. The method, then:
Primary ASM cells from a non-asthmatic donor were serum-deprived for 2 days in a tissue culture flask, and then cultured to confluence for an additional 24 hrs in serum-free medium in 96-well traction force measurement plates (3 kPa stiffness). The pre-treatment contractile force was measured as described above. Cells were then treated with either vehicle (PEG400), control (serum-free medium) or Pitavastatin at concentrations of 10^−5 M, 10^−6 M, 10^−7 M, and 10^−8 M, for 24 hrs, and the baseline contractile force measured. ASM cells were then acutely treated with histamine (10 μM) for 30 minutes, and the histamine-induced contractile force was measured. The cells were then treated with isoproterenol (10^−6, 10^−7, 10^−8, 10^−9, and 10^−11 M) for 30 minutes, and the isoproterenol-relaxed ASM contractile force was measured. The percent “histamine contraction” was calculated as the ratio of isoproterenol-relaxed ASM contractile force to histamine-induced contractile force. […] FIG. 17B details the data boxed in FIG. 17A.

The test system of data set [1] is human ASM cells, histamine-induced contraction. Nature of the data set: Contractile force screening, histamine-induced ASM contraction. The format is cell-based. As to the method: Contractile Force Screening: Human ASM cells were grown to confluence in 96-well plates on custom NuSil™ 8100 elastic substrates (Avantor, Inc., Radnor, Pa.) (R. Rokhzan et al., Lab Invest (2019) 99(1):138-45). Fluorescent beads (diameter ˜400 nm) were embedded in the substrate surface to enable traction force calculations based on their displacements. To measure fractions, an inverted epi-fluorescence microscope (DMI 6000B, Leica Inc., Germany) equipped with a heated chamber (37° C.), a monochrome camera (Leica DFC365 FX), and a motorized stage was used. Spatial images were recorded of substrate-embedded fluorescent beads at 10× magnification. Based on the bead displacements (resolution ˜15 μm) relative to a cell-free model, together with knowledge of substrate stiffness and thickness, fractions were computed using the approach of Fourier Transform Traction Cytometry (B. Yeganeh et al., Pharmacol Ther (2014) 143(1):87-110), modified to the case of cell monolayers (E. J. Whalen et al., Cell (2007) 129(3):511-22). From each fraction map, the root-mean-squared traction (RMST) value and strain energy were calculated and reported as a measure of normal contraction in the monolayer. On a well-by-well basis, the ratio of the strain energy after vs. before treatment was computed, and all values of a given treatment group were normalized to the mean of each treatment group.
In complete media, 0.08 μM pitavastatin is sufficient to inhibit histamine-mediated ASM contraction (FIG. 4A).

In data set [2] the test system is bronchial airways of human PCLS. Put plainly: Histamine-induced airway constriction in human PCLS. The conditions noted are these: pre-treated 24 hrs, compared to vehicle, FIG. 11C. The source says: A non-transplantable non-asthmatic human donor lung was obtained through the Gift of Hope/Regional Organ Bank of Illinois, and sliced as per published protocols. Briefly, the lung lobe was filled with 1.5% low melting temperature agarose (Type IX; Sigma, St. Louis, Mo.) in Hanks balanced salt solution (pH=7.4; Invitrogen, Carlsbad, Calif.), and sliced using a VT1200S vibrating blade microtome (Leica Microsystems, Bannockburn, Ill.) to create 250 μm thick slices. Slices were cryopreserved till the day of the experiment.
Slices were treated with pitavastatin (2 μM) for 24 hrs, before challenge with histamine (1 μM). Airway constriction was measured as luminal area changes in response to increasing doses of histamine. In both sets of PCLS samples, airway lumen area was quantified from bright field images using the Fiji image analysis software.

The next data set relates to mouse PCLS. Nature of the data set: Viability of mouse PCLS (lung tissue toxicity). The conditions noted are these: FIG. 10F.

The source of these data is patent US20230014352A1, “INHALED STATINS AS BRONCHODILATORS TO IMPROVE LUNG FUNCTION IN RESPIRATORY DISEASES” (priority 2019, published 2023).

Entries after “also recorded” stand apart in the source; their conditions may differ.

On to `O=C(O)C[C@H](O)C[C@H](O)/C=C/c1c(C2CC2)nc2ccccc2c1-c1ccc(F)cc1` [pitavastatin], for which, in the data set with eotaxin-3, the “IL13/TNFα-induced eotaxin-3 peptide secretion” value is recorded as “inhibited”. Further, the “apoptosis and necrosis (cell death)” value in the data set with ASM cells is “no evidence of apoptosis or cell death”. In addition, in the data set with ASM cells, the cellular toxicity result is “did not demonstrate any”. Also, in the data set on primary ASM cells (10^−7 M, 10^−6 M and 10^−5 M pitavastatin 24 hrs, 10^−9 M and 10^−8 M isoproterenol), the “effect of isoproterenol on histamine contraction compared to vehicle” value is recorded as “potentiated”. For the same compound, in the data set with primary ASM cells (all concentrations of statin, 10^−11 M isoproterenol), the “degree of relaxation compared to vehicle” value is listed as “not substantially different from vehicle”. For the same compound, in data set [1], the “potency relative to SA in prevention of histamine-induced ASM contraction” value is recorded as “at least 5 times”. For the same compound, the “histamine-induced ASM contraction” value is “renders histamine ineffective at inducing ASM contraction” in data set [1] (0.4 μM statin, 24 hrs); “inhibits histamine-induced ASM contraction” in data set [1] (0.4 μM statin, 24 hrs, listed as Pit); “significantly reduced histamine-induced ASM contraction; also recorded: potently and significantly inhibited” in data set [1] (pre-treatment 24 hrs, histamine 10 μM, FIG. 4A/4B). In data set [1] (complete media, FIG. 4A), the “concentration sufficient to inhibit histamine-mediated ASM contraction” value was 0.08 µM. For the same compound, in data set [1] (pitavastatin, simvastatin, atorvastatin), the “potency ranking on histamine-induced ASM contraction” value was “most potent of the three drugs”. Further, the “concentration providing a similar extent of protection from histamine-induced contraction” value in data set [1] (serum starved media) was determined as 0.4 µM. Further, the entries for the “1 μM histamine-induced airway constriction (lumen narrowing)” value in data set [2] and in data set [2] (listed as Pit) were “significantly inhibited” and “significantly reduced”, respectively. The lung tissue toxicity entry in the data set with mouse PCLS is reported as “did not demonstrate any”.
